Like-named read-outs stand apart in the source and are kept apart here.
System: HCV proteins in Rep5.1 cells (replicon cell line)
Assay: Inhibitory activity of HCV: cell-based ELISA in replicon cell line Rep5.1 (decrease of HCV proteins)
Design: species or system hepatitis C virus
Settings: Rep5.1 cells, 72 hours with drug
Procedure: In order to, screen and evaluate the anti-HCV therapeutic agents in cell level, the following experiments are carried out using a replicon cell line, Rep5.1 [Lohmann, et al., Replication of subgenomic hepatitis C virus RNAs in a hepatoma cell line. Science 285:110-113 (1999)].
Rep5.1 cells, the replicon cell line, are cultured in DMEM-10 containing 500 μg/ml of G418. The Rep5.1 cells in log phase are suspended by trypsin treatment, and 5000 cells are distributed to each well of a 96-well plate. After 4 hours when the cells are attached to the plate, the serially diluted drug is added to each well. After 48 hours, a part of the treated cells are observed by microscope, and MTT assay is carried out to evaluate the drug toxicity. The cytotoxicity is estimated in percentage based on the control containing no drug. After 72 hours, the remaining cells are fixed by methanol/acetone (50/50, v/v), and the decrease of HCV proteins is measured by using HCV antibody. The extent of decrease is estimated in percentage based on the control containing no drug, and the concentration of drug at which 50% of proteins is decreased is determined to be IC50. The compounds showing activity via this procedure are validated by Western blotting. In order to find out whether the decrease of HCV protein is related to the decrease of replicon RNA, Rep5.1 cell is treated with some selected drugs for 72 hours, RNA is purified, dot blotted, and hybridized with isotope labelled nucleic acid to determine the amounts of actin mRNA and replicon RNA, and finally the amount of RNA is compared.
Plasma samples from 300 persons positive to the hepatitis C antibody test were screened by antibody diagnosis kit produced by LG life Sciences Ltd. (LG HCD3.0 TMB) to select 40 plasma samples having high titer. Replicon cell line and Huh-7 cell line each were cultured in a 96-well cell culture plate, fixed by methanol/acetone (1:1) mixture, and blocked by 3% skimmed milk. The 40 plasma sanples selected above were 100-fold diluted and aided thereto, and the bound antibodies were probed by anti-Human goat antibody (Sigma) to which Horse Radish Peroxidase is attached. As a result, 12 plasma samples having low specificity to Huh-7 cell line, but high specificity to replicon cell line were obtained. These plasma samples were used in the following cell-based ELISA.
Rep5.1 cells were cultured in DMEM-10 containing 500 μg/ml of G418. The Rep5.1 cells in log phase were suspended by trypsin treatment, and 5000 cells were distributed to each well of a 96-well pate. After 4 hours for which the cells were attached to the plate, the serially diluted drug was added to each well. After 72 hours, the cells were fixed by methanol/acetone (50/50, v/v), and the decrease of HCV proteins was measured by using HCV antibody obtained as above. The extent of decrease was estimated in percentage based on the control containing no drug, and the concentration of drug at which 50% of proteins was decreased was determined to be IC50.

[1] = Hepatitis C virus, 72 h, concentration at which 50% of HCV proteins was decreased, Table 2, read-out: IC50
[2] = Hepatitis C virus, 72 h, decrease of HCV proteins measured by HCV antibody, Table 1, read-out: Level (IC50 values classified)

CC1=C(C(=O)OCCOCCc2ccsc2)C(CO)NC(=S)N1 (centres unmarked) [16″, 4-hydroxymethyl-6-methyl-2-thioxo-1,2,3,4-tetrahydro-pyrimidine-5-carboxylic acid 2-(2-thiophen-3-yl-ethoxy)-ethyl ester]
IC50 [1]: > 100000 nM | IC50 [2]: > 20000 nM

CC1=C(C(=O)OCCc2ccc(Cl)cc2Cl)C(CO)NC(=S)N1 (centres unmarked) [43″, 4-hydroxymethyl-6-methyl-2-thioxo-1,2,3,4-tetrahydro-pyrimidine-5-carboxylic acid 2-(2,4-dichloro-phenyl)-ethyl ester]
IC50 [1]: < 400 nM | IC50 [2]: < 1000 nM

CC1=C(C(=O)OCc2ccc(-c3cccs3)s2)C(CF)NC(=S)N1 (centres unmarked) [62′, 4-fluoromethyl-6-methyl-2-thioxo-1,2,3,4-tetrahydro-pyrimidine-5-carboxylic acid [2,2′]bithiophenyl-5-ylmethyl ester]
IC50 [1]: 2000 nM | IC50 [2]: 1000 to 10000 nM

CC1=C(C(=O)OCc2ccc3nc(C)oc3c2)CNC(=S)N1 [Compound 256, 6-methyl-2-thioxo-1,2,3,4-tetrahydro-pyrimidine-5-carboxylic acid 2-methyl-benzoxazol-6-ylmethyl ester]
IC50 [1]: 3400 nM | IC50 [2]: 1000 to 10000 nM

CC1=C(C(=O)OCCc2ccsc2F)C(CF)NC(=S)N1 (centres unmarked) [1′, 4-fluoromethyl-6-methyl-2-thioxo-1,2,3,4-tetrahydro-pyrimidine-5-carboxylic acid 2-(2-fluoro-thiophen-3-yl)-ethyl ester]
IC50 [1]: 1800 nM | IC50 [2]: 1000 to 10000 nM

CC1=C(C(=O)OC2CCN(Cc3ccccc3)CC2)CNC(=S)N1 [Compound 86, 6-methyl-2-thioxo-1,2,3,4-tetrahydro-pyrimidine-5-carboxylic acid 1-benzyl-piperidin-4-yl ester]
IC50 [1]: > 100000 nM | IC50 [2]: > 20000 nM

CC1=C(C(=O)OCC#Cc2ccccc2)CNC(=S)N1 [Compound 192, 6-methyl-2-thioxo-1,2,3,4-tetrahydro-pyrimidine-5-carboxylic acid 3-phenyl-prop-2-inyl ester]
IC50 (concentration at which 50% of HCV proteins was decreased, Table 2, read-out: IC50): < 400 nM

CC1=C(C(=O)OCc2ccccc2)C(CF)NC(=S)N1 (centres unmarked) [Compound 211, 4-fluoromethyl-6-methyl-2-thioxo-1,2,3,4-tetrahydro-pyrimidine-5-carboxylic acid benzyl ester]
IC50 [1]: 16000 nM | IC50 [2]: 10000 to 20000 nM

CC1=C(C(=O)OCc2nc3ccccc3s2)CNC(=S)N1 [Compound 226, 6-methyl-2-thioxo-1,2,3,4-tetrahydro-pyrimidine-5-carboxylic acid benzothiazol-2-ylmethyl ester]
IC50 [1]: 2200 nM | IC50 [2]: 1000 to 10000 nM

CC1=C(C(=O)OC(C)Cc2ccsc2Br)C(CF)NC(=S)N1 (centres unmarked) [27′, 4-fluoromethyl-6-methyl-2-thioxo-1,2,3,4-tetrahydro-pyrimidine-5-carboxylic acid 2-(2-bromo-thiophen-3-yl)-1-methyl-ethyl ester]
IC50 [1]: < 400 nM | IC50 [2]: < 1000 nM

CC1=C(C(=O)OCCc2ccccc2F)CNC(=S)N1 [Compound 116, 6-methyl-2-thioxo-1,2,3,4-tetrahydro-pyrimidine-5-carboxylic acid 2-(2-fluoro-phenyl)-ethyl ester]
IC50 [1]: 500 nM | IC50 [2]: < 1000 nM

CC(=O)SCCOC(=O)OCC1NC(=S)NC(C)=C1C(=O)OCCc1cccc([N+](=O)[O-])c1 (centres unmarked) [79″, 4-(2-acetylsulfanyl-ethoxycarbonyloxymethyl)-6-methyl-2-thioxo-1,2,3,4-tetrahydro-pyrimidine-5-carboxylic acid 2-(3-nitro-phenyl)-ethyl ester]
IC50 [1]: 6200 nM | IC50 [2]: 1000 to 10000 nM

CC1=C(C(=O)OCCc2ccc(N(C)C)cc2)CNC(=S)N1 [Compound 95, 6-methyl-2-thioxo-1,2,3,4-tetrahydro-pyrimidine-5-carboxylic acid 2-(4-dimethylamino-phenyl)-ethyl ester]
IC50 [1]: 700 nM | IC50 [2]: < 1000 nM

CC1=C(C(=O)OCc2cc(Cl)cc(Cl)c2)CNC(=S)N1 [Compound 131, 6-methyl-2-thioxo-1,2,3,4-tetrahydro-pyrimidine-5-carboxylic acid 3,5-dichloro-benzyl ester]
IC50 [1]: < 400 nM | IC50 [2]: < 1000 nM

CC(=O)Oc1ccccc1CCC(=O)OCC1NC(=S)NC(C)=C1C(=O)OCCc1cccc([N+](=O)[O-])c1 (centres unmarked) [81″, 4-[3-(2-acetoxy-phenyl)-propionyloxymethyl]-6-methyl-2-thioxo-1,2,3,4-tetrahydro-pyrimidine-5-carboxylic acid 2-(3-nitro-phenyl)-ethyl ester]
IC50 [1]: 6500 nM | IC50 [2]: 1000 to 10000 nM

CC1=C(C(=O)OCc2ccc(OCc3ccccc3)cc2)CNC(=S)N1 [Compound 49, 6-methyl-2-thioxo-1,2,3,4-tetrahydro-pyrimidine-5-carboxylic acid 4-benzyloxy-benzyl ester]
IC50 [1]: < 500 nM | IC50 [2]: < 1000 nM

CC1=C(C(=O)OCCc2ccc(F)c(C)c2)C(CO)NC(=S)N1 (centres unmarked) [66″, 4-hydroxymethyl-6-methyl-2-thioxo-1,2,3,4-tetrahydro-pyrimidine-5-carboxylic acid 2-(4-fluoro-3-methyl-phenyl)-ethyl ester]
IC50 [1]: 700 nM | IC50 [2]: < 1000 nM

CC1=C(C(=O)OCCc2cccc([N+](=O)[O-])c2)CNC(=S)N1 [14′, 6-methyl-2-thioxo-1,2,3,4-tetrahydro-pyrimidine-5-carboxylic acid 2-(3-nitro-phenyl)-ethyl ester]
IC50 [1]: 700 nM | IC50 [2]: < 1000 nM

C=C(Br)CCOC(=O)C1=C(C)NC(=S)NC1 [Compound 99, 6-methyl-2-thioxo-1,2,3,4-tetrahydro-pyrimidine-5-carboxylic acid 3-bromo-but-3-enyl ester]
IC50 [1]: 1800 nM | IC50 [2]: 1000 to 10000 nM

CC1=C(C(=O)OCc2cc3c(C)snc3s2)CNC(=S)N1 [Compound 213, 6-methyl-2-thioxo-1,2,3,4-tetrahydro-pyrimidine-5-carboxylic acid 3-methyl-thieno[2,3-c]isothiazol-5-ylmethyl ester]
IC50 [1]: 4000 nM | IC50 [2]: 1000 to 10000 nM

COc1ccc(CCOC(=O)C2=C(C)NC(=S)NC2)cc1 [Compound 92, 6-methyl-2-thioxo-1,2,3,4-tetrahydro-pyrimidine-5-carboxylic acid 2-(4-methoxy-phenyl)-ethyl ester]
IC50 [1]: 1000 nM | IC50 [2]: < 1000 nM

O=C(OCc1ccccc1)C1=C(CCc2ccccc2)NC(=S)NC1 [Compound 19, 6-phenethyl-2-thioxo-1,2,3,4-tetrahydro-pyrimidine-5-carboxylic acid benzyl ester]
IC50 [1]: 1600 nM | IC50 [2]: < 1000 nM

CC1=C(C(=O)OCc2ccc(-c3cnc(C)s3)s2)CNC(=S)N1 [Compound 221, 6-methyl-2-thioxo-1,2,3,4-tetrahydro-pyrimidine-5-carboxylic acid 5-(2-methyl-thiazol-5-yl)-thiophen-2-ylmethyl ester]
IC50 [1]: 2500 nM | IC50 [2]: 1000 to 10000 nM

CC1=C(C(=O)OCCc2ccsc2)C(CO)NC(=S)N1 (centres unmarked) [3″, 4-hydroxymethyl-6-methyl-2-thioxo-1,2,3,4-tetrahydro-pyrimidine-5-carboxylic acid 2-thiophen-3-yl-ethyl ester]
IC50 [1]: 9000 nM | IC50 [2]: 1000 to 10000 nM

CC1=C(C(=O)OCc2cccc(SC(F)(F)F)c2)CNC(=S)N1 [Compound 164, 6-methyl-2-thioxo-1,2,3,4-tetrahydro-pyrimidine-5-carboxylic acid 3-trifluoromethylsulfanyl-benzyl ester]
IC50 [1]: < 400 nM | IC50 [2]: < 1000 nM

CCCCCCC(C)OC(=O)C1=C(C)NC(=S)NC1 (centres unmarked) [Compound 35, 6-methyl-2-thioxo-1,2,3,4-tetrahydro-pyrimidine-5-carboxylic acid 1-methyl-heptyl ester]
IC50 [1]: < 500 nM | IC50 [2]: < 1000 nM

COc1cc(COC(=O)C2=C(C)NC(=S)NC2)cc(OC)c1 [Compound 81, 6-methyl-2-thioxo-1,2,3,4-tetrahydro-pyrimidine-5-carboxylic acid 3,5-dimethoxy-benzyl ester]
IC50 [1]: 3000 nM | IC50 [2]: 1000 to 10000 nM

Reference: patent US20060116390A1, “Hepatitis c virus inhibitors” (priority 2003, published 2006)
